The results in this text go back to EPA's ToxValDB 9.5 (doi:10.2903/j.efsa.2009.298r).

In brackets after ≈: the same amount, converted by molar mass. Some results are limits rather than exact numbers.

One data set deals with Allium cepa. The settings on record: not reported; seedling emergence.
Another data set relates to Folsomia candida. The note with it: chronic/long-term.
Another data set relates to Canidae. The settings on record: oral, Dog Other, organ weight.
The test system of another data set is Apis mellifera. The note with it: acute, mortality.
In another data set the test system is Daphnia magna. The note with it: chronic/long-term; duration: 21 days; reproduction.
In a further data set the test system is Tagia sp. The note with it: mortality.

Take `CCCCC(C#N)(Cn1cncn1)c1ccc(Cl)cc1` (configuration not stated) [Myclobutanil]: the LEL in the data set with Allium cepa is over 300 g/ha; in the data set with Typhlodromus pyri (acute, duration: 14 days, mortality), 36 g/ha; with Typhlodromus pyri (not reported, reproduction), 36 g/ha. The LC50 in the data set with Oncorhynchus mykiss (acute, duration: 96 hours, mortality) is 2 µg/mL (≈ 6.93 µM); in the data set with Colinus virginianus (acute, oral, diet, mortality), over 567 mg/kg-day; in the data set on Tagia sp. (acute), 250 mg/kg; in the data set on Anas platyrhynchos (short-term, oral, feed, mortality) it was over 1540 mg/kg-day. The NOEC in the data set with Oncorhynchus mykiss (chronic/long-term, duration: 21 days, growth) is 0.2 mg/L; in the data set on Folsomia candida, 20.5 mg/kg; in the data set with Colinus virginianus (reproduction developmental), 24.2 mg/kg-day; in the data set with Daphnia magna, 1 mg/L; in the data set with Tagia sp. (chronic/long-term, duration: 28 days), 10.3 mg/kg; in the data set with Anas platyrhynchos (reproductive), 31.6 mg/kg-day. For the same compound, the LD50 in the data set with Colinus virginianus (acute, oral, mortality) was 510 mg/kg-day; in the data set on Rattus norvegicus (acute, oral, M, mortality), 1600 mg/kg-day; in the data set on Apis mellifera (duration: 72 hours, dermal), over 39.6 µg/piece; in the data set on Apis mellifera (oral, unspecified), over 33.9 µg/piece. The NOAEL with Rattus norvegicus (chronic, duration: 2 years, histopathology: nonneoplastic) was found to be 2.5 mg/kg-day; in the data set on Rattus norvegicus (developmental, development), 31 mg/kg-day; in the data set on Canidae (chronic, duration: 1 years) it was 3.09 mg/kg-day; in the data set on Canidae (subchronic, duration: 90 days), 3.09 mg/kg-day. The compound further yielded an NOEL in the data set with Rattus norvegicus (reproduction developmental, reproduction) of 16 mg/kg-day.
